Several values for one entry are separate records, joined by “and”; a condition that tells them apart may be missing. Equal values may be shown once. Read-outs that look alike come from different tables or passages of the source.
Columns and labels:
[1] = type: in vitro ADME, Human; details: clearance in hepatocytes
[2] = molecular target: endogenous ClpC1 in Msm #607 cells (Mycolicibacterium smegmatis, UniProt A0R574); type: cell-based, M. smegmatis; details: for ClpC1/Total protein / ClpC1 peak area / Total protein: well replicates of independent experiments
[3] = molecular target: ClpC1-NTD substrate, M. tuberculosis ClpC1P1P2 (Mycobacterium tuberculosis, UniProt P9WPC9); assay: biochemical; type: biochemical; details: Mtb; mean of the measurements; read-out: DC50, Mean
Mycobacterium fortuitum = assay: microbe, parasite or virus in culture; type: cell-based
[4] = system: replicating Mtb H37Rv cells; assay: Resazurin growth assay, replicating Mtb H37Rv (Supplementary Fig. 2); type: cell-based, Mycobacterium tuberculosis; details: three replicate columns
[5] = system: non-replicating cells of Mtb H37Rv; type: cell-based, Mycobacterium tuberculosis; details: for Supplementary Figure 2 dose-response value, starvation-induced non-replicating H37Rv cells: three replicate columns
[6] = type: in vitro ADME, Mice; details: clearance in microsomes
Summary of the method: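 Read-out: parent loss by HPLC-MS/MS, first-order fit, half-life scaled to %Qh (well-stirred liver model). Conditions: 1 µmol/l cpd, 0.5 mg/ml microsomes, 100 mM Tris-HCl pH 7.5, 6.5 mM MgCl2, 1 mM NADPH, 37 °C; acetonitrile stop at multiple times.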

Mtb ATCC 35825 = assay: microbe, parasite or virus in culture; type: cell-based
Klebsiella pneumoniae = assay: MIC ESKAPES panel, Klebsiella pneumoniae; type: cell-based
Procedure: Minimum inhibitory concentration (MIC) against ESKAPES panel of Gram positive and Gram negative pathogens (Enterococcus faecium, Staphylococcus aureus, Klebsiella pneumoniae, Acinetobacter baumannii, Pseudomonas aeruginosa, Enterobacter cloacae and Salmonella typhimurium [ESKAPES panel]) were determined at the FNDR by the standard broth dilution method [CLSI, M100]. […] Mueller Hinton broth (MHB) medium was used to grow ESKAPES panel strains. The individual cultures were added as 200 μL (inoculum of 3–7 × 10^5 cfu/ml) to the respective assay plates in each well to all columns, except the media control (200 μL of medium). […] The assay plates were incubated at 37 °C, and the results were noted on the 2nd day as turbidometric readout. The clear wells indicated inhibition of growth, while the turbid wells indicated uninhibited growth.

[7] = single well replicates, listed as 8 (UdSBAI-0545)

endogenous ClpC1 in Msm #607 cells, sequence (A0R574 whole entry): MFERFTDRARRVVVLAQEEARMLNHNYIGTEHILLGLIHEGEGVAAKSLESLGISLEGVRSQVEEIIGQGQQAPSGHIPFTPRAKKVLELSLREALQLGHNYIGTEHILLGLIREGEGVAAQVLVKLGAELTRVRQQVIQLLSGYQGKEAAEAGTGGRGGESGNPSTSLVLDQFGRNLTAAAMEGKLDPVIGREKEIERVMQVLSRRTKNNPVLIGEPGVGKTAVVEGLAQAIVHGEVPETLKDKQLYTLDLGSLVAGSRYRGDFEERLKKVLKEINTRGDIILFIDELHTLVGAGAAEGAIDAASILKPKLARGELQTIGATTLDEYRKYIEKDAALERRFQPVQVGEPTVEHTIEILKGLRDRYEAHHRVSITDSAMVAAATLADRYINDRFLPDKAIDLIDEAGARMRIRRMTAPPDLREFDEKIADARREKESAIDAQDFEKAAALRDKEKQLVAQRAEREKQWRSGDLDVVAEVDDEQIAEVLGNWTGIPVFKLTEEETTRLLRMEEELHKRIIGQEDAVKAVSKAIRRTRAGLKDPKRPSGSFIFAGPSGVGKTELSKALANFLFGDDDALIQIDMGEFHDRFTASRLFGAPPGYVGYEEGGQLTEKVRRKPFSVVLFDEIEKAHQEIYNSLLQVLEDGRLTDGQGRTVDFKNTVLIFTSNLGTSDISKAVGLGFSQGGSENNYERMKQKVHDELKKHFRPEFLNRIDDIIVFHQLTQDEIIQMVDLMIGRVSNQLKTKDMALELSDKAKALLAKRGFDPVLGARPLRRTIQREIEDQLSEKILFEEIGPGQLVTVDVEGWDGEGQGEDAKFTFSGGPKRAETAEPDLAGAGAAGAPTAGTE
ClpC1-NTD substrate, M. tuberculosis ClpC1P1P2, sequence (P9WPC5 whole entry): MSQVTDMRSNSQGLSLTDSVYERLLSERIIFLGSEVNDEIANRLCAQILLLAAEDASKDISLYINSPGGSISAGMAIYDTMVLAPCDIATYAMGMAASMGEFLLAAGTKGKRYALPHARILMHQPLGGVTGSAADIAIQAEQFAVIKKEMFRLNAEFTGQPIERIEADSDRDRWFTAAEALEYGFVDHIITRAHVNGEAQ
ClpC1-NTD substrate, M. tuberculosis ClpC1P1P2, sequence (P9WPC9 whole entry): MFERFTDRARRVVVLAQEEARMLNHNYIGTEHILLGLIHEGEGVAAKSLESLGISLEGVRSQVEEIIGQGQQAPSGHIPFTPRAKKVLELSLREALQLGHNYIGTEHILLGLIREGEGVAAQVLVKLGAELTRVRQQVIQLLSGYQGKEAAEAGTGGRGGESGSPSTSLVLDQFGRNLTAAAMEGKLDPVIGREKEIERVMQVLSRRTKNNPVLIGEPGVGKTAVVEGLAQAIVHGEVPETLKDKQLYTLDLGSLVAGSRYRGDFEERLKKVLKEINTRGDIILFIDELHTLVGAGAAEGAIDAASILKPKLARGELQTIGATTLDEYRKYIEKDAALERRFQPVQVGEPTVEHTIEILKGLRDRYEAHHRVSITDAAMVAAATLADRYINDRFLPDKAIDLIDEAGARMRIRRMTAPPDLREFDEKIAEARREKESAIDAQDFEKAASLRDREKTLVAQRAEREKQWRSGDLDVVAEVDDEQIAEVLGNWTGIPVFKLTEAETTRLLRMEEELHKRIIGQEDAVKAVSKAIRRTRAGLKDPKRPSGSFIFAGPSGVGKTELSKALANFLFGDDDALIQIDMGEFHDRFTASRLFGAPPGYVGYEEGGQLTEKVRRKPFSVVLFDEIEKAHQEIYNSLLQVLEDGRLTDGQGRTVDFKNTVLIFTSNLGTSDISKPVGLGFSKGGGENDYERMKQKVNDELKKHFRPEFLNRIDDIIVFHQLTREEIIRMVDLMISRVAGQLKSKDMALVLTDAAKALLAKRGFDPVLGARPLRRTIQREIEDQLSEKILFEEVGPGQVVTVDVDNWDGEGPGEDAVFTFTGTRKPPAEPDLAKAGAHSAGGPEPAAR
ClpC1-NTD substrate, M. tuberculosis ClpC1P1P2, sequence (P9WPC3 whole entry, further chain): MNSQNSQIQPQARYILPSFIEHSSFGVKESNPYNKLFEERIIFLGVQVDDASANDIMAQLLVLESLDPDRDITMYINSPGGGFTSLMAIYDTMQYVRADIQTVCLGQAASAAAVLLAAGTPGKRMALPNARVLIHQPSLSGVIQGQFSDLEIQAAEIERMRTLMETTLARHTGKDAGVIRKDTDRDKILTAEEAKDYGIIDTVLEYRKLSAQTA

With COC(c1ccccc1)C1NC(=O)C(C)NC(=O)C(CC(C)CO)N(C)C(=O)C(Cc2cn(Cc3cn(CCOCCOCCOCCOCCn4cc(Cn5cc(CC6NC(=O)C(C(C)C)NC(=O)C(CC(C)C)N(C)C(=O)C(C(C)C)NC(=O)C(C(OC)c7ccccc7)NC(=O)C(C)NC(=O)C(CC(C)CO)N(C)C6=O)c6ccccc65)nn4)nn3)c3ccccc23)NC(=O)C(C(C)C)NC(=O)C(CC(C)C)N(C)C(=O)C(C(C)C)NC1=O (stereo not drawn) [Compound 8] the “Hepatocyte Human” value [1] was 12 %Qh, the DC50 ([2]; 24 hours, value of the earlier manuscript version quoted in the peer review file, read-out: average DC50, ClpC1 degradation) was 571 nM and the DC50 ([2]; Msm #607, 24 h of incubation, read-out: average DC50, endogenous ClpC1 degradation) was 570 ± 400 nM. For the same molecule, the ClpC1/Total protein ([2]; conc. 0.00038147 µM) was 0.2282 and 0.267 and 0.2648 and 0.2027 and 0.212 and 0.2298 and 0.7429 and 0.8229 and 0.7712, the ClpC1 peak area ([2]; conc. 0.00038147 µM) was 294811 and 344226 and 322628 and 390018 and 426373 and 358944 and 302120 and 328285 and 319637 and the Total protein ([2]; conc. 0.00038147 µM) was 1323644 and 1229496 and 1207050 and 1454716 and 1623647 and 1404254 and 524970 and 518103 and 465460. The ClpC1/Total protein ([2]; conc. 0.00305176 µM) was 0.2394 and 0.2569 and 0.2557 and 0.2218 and 0.1962 and 0.1042 and 0.78 and 0.7556 and 0.8129, the ClpC1 peak area ([2]; conc. 0.00305176 µM) was 298033 and 275548 and 121574 and 410944 and 384208 and 424052 and 320906 and 252067 and 328696 and the Total protein ([2]; conc. 0.00305176 µM) was 1340459 and 981268 and 1285339 and 1343857 and 1404470 and 1166366 and 526872 and 508500 and 521664. The ClpC1/Total protein ([2]; conc. 0.0244141 µM) was 0.2203 and 0.2456 and 0.2539 and 0.1932 and 0.1901 and 0.2179 and 0.789 and 0.7808 and 0.8172, the ClpC1 peak area ([2]; conc. 0.0244141 µM) was 219991 and 270896 and 315004 and 406280 and 373553 and 423254 and 300752 and 349284 and 304692 and the Total protein ([2]; conc. 0.0244141 µM) was 1364922 and 1422232 and 1199890 and 1138728 and 1425365 and 1445718 and 514950 and 478415 and 517944. The ClpC1/Total protein ([2]; conc. 0.195312 µM) was 0.1965 and 0.2082 and 0.2171 and 0.1985 and 0.1828 and 0.1625 and 0.6454 and 0.6178 and 0.5924, the ClpC1 peak area ([2]; conc. 0.195312 µM) was 206233 and 279281 and 214864 and 343404 and 327767 and 310653 and 236077 and 257791 and 242759 and the Total protein ([2]; conc. 0.195312 µM) was 1201296 and 1238340 and 1118172 and 1039169 and 1528116 and 1322136 and 532053 and 530512 and 524388. The ClpC1/Total protein ([2]; conc. 1.5625 µM) was 0.183 and 0.1832 and 0.1776 and 0.1788 and 0.1391 and 0.1421 and 0.6251 and 0.5883 and 0.5813, the ClpC1 peak area ([2]; conc. 1.5625 µM) was 199828 and 195826 and 198204 and 278984 and 250174 and 259931 and 291643 and 223291 and 227414 and the Total protein ([2]; conc. 1.5625 µM) was 1593808 and 1218853 and 1280312 and 1117747 and 1407385 and 1394918 and 446304 and 425280 and 447143. The ClpC1/Total protein ([2]; conc. 100 µM) was 0.09806 and 0.1539 and 0.02961 and 0.1406 and 0.1399 and 0.1212 and 0.4923 and 0.5713 and 0.5017, the ClpC1 peak area ([2]; conc. 100 µM) was 152582 and 201776 and 136372 and 183701 and 277792 and 199452 and 19555.5 and 216020 and 1024.1 and the Total protein ([2]; conc. 100 µM) was 199420 and 1403452 and 34585.2 and 1085305 and 1442135 and 1125592 and 373184 and 486260 and 397564. It also gave a DC50 ([2]; mean of the measurements, read-out: DC50 Mean) of 571 nM, a DC50 [3] of 8300 nM and an MIC (Mycobacterium fortuitum; Experiment 1, listed as 8 (UdSBI-0545), read-out: MIC Mycobacterium fortuitum) of over 50 µM. The “MIC (µg/ml) Mycobacterium fortuitum” value (Mycobacterium fortuitum; Experiment 2, three replicate columns) was over 108.53 µg/mL, the MIC (Mycobacterium fortuitum; Experiment 2, three replicate columns, read-out: MIC (µM) Mycobacterium fortuitum) was over 50 µM and the MIC (Mycobacterium fortuitum; Mycolicibacterium fortuitum, Experiment 1, read-out: MIC Mycobacterium fortuitum) was over 109 µg/mL. The MIC (Mycobacterium fortuitum; Mycolicibacterium fortuitum, Experiment 2, three replicate columns, read-out: MIC (µM) Mycobacterium fortuitum) was over 50 µM, the MIC (Mycobacterium fortuitum; Mycolicibacterium fortuitum, Experiment 2, three replicate columns, read-out: MIC (µg/ml) Mycobacterium fortuitum) was over 109 µg/mL and the MIC (Mycobacterium fortuitum; Mycolicibacterium fortuitum, mean ± SD, read-out: MIC Mycobacterium fortuitum) was over 50 µM. The “Supplementary Figure 2 dose-response value, replicating H37Rv cells” value ([4]; Conc. 0.0488281 µM) was 104.399 and 96.7961 and 102.12, the “Supplementary Figure 2 dose-response value, replicating H37Rv cells” value ([4]; Conc. 0.0976562 µM) was 93.8283 and 89.4675 and 92.0871 and the “Supplementary Figure 2 dose-response value, replicating H37Rv cells” value ([4]; Conc. 0.195312 µM) was 90.4271 and 81.4889 and 87.4903. For the same molecule, the “Supplementary Figure 2 dose-response value, replicating H37Rv cells” value ([4]; Conc. 0.390625 µM) was 51.3931 and 36.6199 and 50.2013, the “Supplementary Figure 2 dose-response value, replicating H37Rv cells” value ([4]; Conc. 0.78125 µM) was -3.993 and -4.461 and -3.242 and the “Supplementary Figure 2 dose-response value, replicating H37Rv cells” value ([4]; Conc. 1.5625 µM) was -4.627 and -5.471 and -5.181. For the same molecule, the “Supplementary Figure 2 dose-response value, replicating H37Rv cells” value ([4]; Conc. 3.125 µM) was -6.152 and -6.465 and -5.866, the “Supplementary Figure 2 dose-response value, replicating H37Rv cells” value ([4]; Conc. 6.25 µM) was -7.417 and -8.76 and -6.686 and the “Supplementary Figure 2 dose-response value, replicating H37Rv cells” value ([4]; Conc. 25 µM) was -8.655 and -4.856 and -8.241. The “Supplementary Figure 2 dose-response value, replicating H37Rv cells” value ([4]; Conc. 50 µM) was -5.541 and -9.178 and -8.98, the “Supplementary Figure 2 dose-response value, replicating H37Rv cells” value ([4]; Conc. 100 µM) was -7.259 and -9.127 and -7.68 and the “Supplementary Figure 2 dose-response value, starvation-induced non-replicating H37Rv cells” value ([5]; Conc. 0.0488281 µM) was 101.903 and 93.5529 and 95.5846. The “Supplementary Figure 2 dose-response value, starvation-induced non-replicating H37Rv cells” value ([5]; Conc. 0.195312 µM) was 93.6246 and 84.7332 and 86.7409, the “Supplementary Figure 2 dose-response value, starvation-induced non-replicating H37Rv cells” value ([5]; Conc. 0.390625 µM) was 90.2545 and 83.1636 and 86.2868 and the “Supplementary Figure 2 dose-response value, starvation-induced non-replicating H37Rv cells” value ([5]; Conc. 0.78125 µM) was 91.9834 and 86.6134 and 81.2993. For the same molecule, the “Supplementary Figure 2 dose-response value, starvation-induced non-replicating H37Rv cells” value ([5]; Conc. 1.5625 µM) was 90.366 and 86 and 85.5618, the “Supplementary Figure 2 dose-response value, starvation-induced non-replicating H37Rv cells” value ([5]; Conc. 3.125 µM) was 93.9114 and 69.2927 and 87.5137 and the “Supplementary Figure 2 dose-response value, starvation-induced non-replicating H37Rv cells” value ([5]; Conc. 6.25 µM) was 87.458 and 76.4871 and 82.7732. The “Supplementary Figure 2 dose-response value, starvation-induced non-replicating H37Rv cells” value ([5]; Conc. 25 µM) was 86.1354 and 89.2267 and 87.4022, the “Supplementary Figure 2 dose-response value, starvation-induced non-replicating H37Rv cells” value ([5]; Conc. 50 µM) was 91.1707 and 85.8088 and 84.3747 and the “Supplementary Figure 2 dose-response value, starvation-induced non-replicating H37Rv cells” value ([5]; Conc. 100 µM) was 92.3658 and 81.0443 and 90.6608. The “inhibitory activity on non-growing Mtb H37Rv” value ([5]; starvation for three weeks, result in words) was “lost their inhibitory activity”, the “Microsomal Stability Mice” value [6] was 72 %Qh and the MIC (Mtb ATCC 35825; Mycobacterium tuberculosis, ATCC35825, mean, n = 2 well replicates) was < 0.1 µM and < 0.2 µg/mL. The MIC (Mtb ATCC 35825; Mycobacterium tuberculosis, ATCC35825, single well replicates) was < 0.21 µg/mL and < 0.1 µM, the MIC (Mtb ATCC 35825; [7]) was under 0.1 µM and the “MIC Mtb ATCC 35825” value (Mtb ATCC 35825; [7]) was under 0.21 µg/mL. The MIC (Klebsiella pneumoniae; Gram-Negative Bacteria, replicates 1-3, listed as 8 (UdSBI-0545)) was over 50 µM, the MIC (Klebsiella pneumoniae; Klebsiella pneumoniae, Gram negative, n = 3 well replicates) was over 50 µM and the MIC (Klebsiella pneumoniae; Klebsiella pneumoniae, Gram-Negative Bacteria, replicates 1-3) was over 109 µg/mL.

— PMC10914731, “Homo-BacPROTAC-induced degradation of ClpC1 as a strategy against drug-resistant mycobacteria” (Nature Communications, 2024)
